In one experiment the test system is mouse ear edema. The settings on record: induced by arachidonic acid; cited from earlier work.
The test system of a further experiment is rat neutrophils. The experiment is described as follows: chemotaxis of rat neutrophils in vitro. It is filed as cell-based. The settings on record: Neutrophil, 4 hr, read-out: IC50, inhibition of chemotaxis. As to the method: The blood was collected from rat common carotid artery and anticoagulated. The neutrophils was isolated by 5% glucose solution and lymphocyte separating medium. 27 μl of irritant was added into the well at low part of the chemotaxis plate. The filter membrane was covered on the wells and the top part of the plate was assembled on the filter. 50 μl of cells suspension with various concentrations of compound or solvent was added into the well at top part of the plate. The plate was incubated at 37° C. for 4 hr. The filter was taken out, stained by hematoxylin and dehydrated. The cells migrated into the other side of the filter was counted by microscope.

The subject of experiment [1] is mouse ear edema induced by croton oil. Kind of experiment: mouse ear edema induced by croton oil. It is filed as in vivo. The settings on record: orally, 50 mg·kg^−1, Kunming mice. As to the method:
Kuming mice (male, 18-22 g) were randomly divided into two groups (treatment and control) with 10 animals for each group. The animals were orally administrated with compounds or solvent, respectively. 1 hr later, 50 μl of 2% croton oil was smeared on the two sides of mouse left ear. After 4 hr the mice were sacrificed by cervical vertebra displacement. The two ears were cut off and the central sections were excised using a punch with a diameter of 8 mm and weighed. Edema was quantified as the weight difference between the two sections.

Experiment [2] concerns intracellular calcium level of rat polymorphonuclear leucocytes. The experiment is described as follows: increase of intracellular calcium level of rat polymorphonuclear leucocytes (Fura-2/AM, PAF). In kind it is cell-based. The settings on record: Leucocyte, read-out: IC50, inhibition of the increase of intracellular calcium level. As to the method:
1% carrageenan was used to induce polymorphonuclear leucocytes from rat peritoneal cavity. The Fura-2/AM (final concentration: 3×10^−6 mol·L^−1) was added into cells suspension. 1 ml of cells suspension was added into the test tube with compound or solvent. The test tubes were placed in a shaking waterbath at 37° C. for 45 min. Then the test tubes were cooled at room temperature for 15 min. The cells were rinsed twice using HBSS to discarded Fura-2/AM remained in outside of the cells. The suspension of cells loaded with Fura-2/AM was added into the absorbent chamber of fluorospectrometer. The cells were kept to suspend at 37° C. and the fluorescence strength was measured at resting condition or after 20μl of PAF (1×10^−4 mol·L^−1), 20 μl of 10% Triton X-100 and 100 μl EGTA (500 mmol·L−1) was added, respectively. The changes of the intracellular level of calcium at the resting condition or after irritants were added was calculated by program for Ca^2+ measurement.
A general note: Calcium flux is commonly read through the fluorescence of an indicator in the cells.

For experiment [3], the target named is T1, PAF receptors of rat polymorphonuclear leucocytes (Rattus norvegicus, UniProt P46002).
T1 construct: The suspension of rat polymorphonuclear leucocytes was prepared; endogenous in cells; host or cells: rat polymorphonuclear leucocytes (primary, whole-cell suspension)
T1 sequence (P46002 whole entry): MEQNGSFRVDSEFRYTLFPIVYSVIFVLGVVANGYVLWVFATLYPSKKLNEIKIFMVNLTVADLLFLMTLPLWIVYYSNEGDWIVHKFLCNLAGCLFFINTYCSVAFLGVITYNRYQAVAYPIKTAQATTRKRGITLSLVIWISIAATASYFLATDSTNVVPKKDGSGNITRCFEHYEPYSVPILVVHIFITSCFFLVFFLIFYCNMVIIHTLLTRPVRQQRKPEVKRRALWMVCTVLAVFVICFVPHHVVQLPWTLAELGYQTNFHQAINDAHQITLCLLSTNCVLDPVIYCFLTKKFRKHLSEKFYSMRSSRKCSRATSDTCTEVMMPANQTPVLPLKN
The experiment is described as follows: competitive binding of [3H]-PAF to its receptors of rat polymorphonuclear leucocytes. Conditions: 37° C., 30 min, read-out: IC50, competition with [3H]-PAF binding. As to the method: The suspension of rat polymorphonuclear leucocytes was prepared. 240 μl of cells suspension (2×10^6cells·ml^−1), 5 μl of [^3H](5 μmol·L^1) were added into each well. 5 μl of unlabeled PAF (5 μl mol·L^−1)was added into the well for the nonspecific binding. The series concentrations of compound were added into the well for the competitive binding and the corresponding volume of solvent was added into the wells for the total binding or the nonspecific binding. The reaction was kept in water bath at 37° C. for 30 min and stopped by ice bath. Reaction fluid was filtrated using the filter membrane which was rinsed by cold buffer to separate the free labeled ligand. The filter membrane was dried at 80° C. and placed into a vial for scintillation in which 5 ml of scintillation agent was poured. The radioactivity strength was measured by scintillation counter.

The test system of experiment [4] is polymorphonuclear leucocytes from rat pleural cavity. The experiment is described as follows: release of β-glucuronidase by polymorphonuclear leucocytes from rat pleural cavity in vitro (PAF as irritant). In kind it is cell-based. Here is the method:
1% carrageenan was injected into the right pleural cavity of Wistar rat to induce polymorphonuclear leucocytes. The cells was suspended in Dulbecoo's buffer at the concentration of 2.5×10^6 cells·ml^1. The fluid containing the compound or solvent and 250 μl of cells suspension were added in test tube and incubated in 37° C. waterbath for 15 min. Then 2.5 μl of cytochalasin B (1×10^−3 mol·L^−1) was added and the reaction was continued for 5 min. Then 2.5 μl of PAF (1×10^−4 mol·L^−1) was added and for another 5 min. The test tubes were put into ice bath to stop the reaction. The supernatant was isolated and used as the β-glucuronidase release fluid. 25 μl of the enzyme fluid, 25 μl of phenolphthalein-glucuronic acid (2.5 mmol·L^−1) and 100 μl of acetic acid buffer (0.1 mol·L^−1) were added into each well of 96-well plate which was placed into incubater and kept at 37° C.3 for 18 hr. 150 μl of NaOH (0.3 mol·L^−1) was added in each well to cease the reaction and the optical density was read at 550 nm.

For experiment [5], the system named is cutaneous vascular permeability in mice induced by PAF. Kind of experiment: increase of cutaneous vascular permeability in mice induced by PAF. Conditions: orally, 50 mg·kg^−1, Kunming mice. In kind it is in vivo, mouse. Here is the method: Kunming mice (male, 18-22 g) were randomly divided into two groups (treatment and control) with 10 animals for each group. The animals were orally administrated with the compounds or solvent, respectively. 1 hr later, 0.25 ml of 1% evans blue dye was injected into the tail vein. After 10 min, 0.1 ml of PAF (1×10^−8 mol·L^−1) was intracutaneously injected into the dorsal skin shaved. 1 hr later, the animals were sacrificed by cervical vertebra displacement. The skin with blue spot was cut off. The evans blue dye was extracted by 0.8 ml of mixed solution of acetone and normal saline (7:3). The supernatant was transferred into the 96-well plate. The optical density was measured at 620 nm.

The test system of experiment [6] is mouse paw swelling induced by carrageenan. The experiment is described as follows: mouse paw swelling induced by carrageenan. In kind it is in vivo. The settings on record: orally, 50 mg·kg^−1, Kunming mice. Here is the method:
Kunming mice (male, 18-22 g) were randomly divided into two groups (treatment and control) with 10 animals for each group. The animals were orally administrated with compounds or solvent, respectively. 1 hr later, 50 μl of 1% carrageenan was intracutaneously injected into the sole of right posterior foot. After 4 hr the animals were sacrificed by displacing cervical vertebra. The two paws were cut off at ankle joint and weighed. The swelling was evaluated by the difference of the weights of two paws.

The next experiment relates to rat ear edema. The settings on record: induced by PAF or PMA; cited from earlier work.
Experiment [7] deals with TNF-α level in synovial fluid of rat ankle joint. The settings on record: induced by immune complex; cited from earlier work.
Experiment [8] concerns new vessels in mouse angiogenesis model. The settings on record: mouse angiogenesis model induced by synovial fluid of patient with rheumatoid arthritis; cited from earlier work.

Structures can show the parent of a compound that is named as a salt.

In the case of `COc1cc([C@H]2CC[C@H](c3cc(OC)c(OC)c(OC)c3)O2)cc(CNC(=O)N(C)O)c1OCCSc1ccc(Cl)cc1` [LDP-392], in the experiment with mouse ear edema, the mouse ear edema result is listed as “significantly inhibit”.
Regarding `O=C(C=Cc1ccc(C(F)(F)F)cc1)CCN1CCC(Cc2ccccc2)CC1` [Compound 20, 5-[(4-Benzyl)piperidyl]-1-(4-trifluoromethylphenyl)-1-penten-3-one hydrochloride], the IC50 (as a rule, the concentration that gives 50% inhibition) in the experiment with rat neutrophils was 335 nM; in experiment [2], 5160 nM; in experiment [3], 55000 nM; in [4] (Leucocyte, rat polymorphonuclear leucocytes), 308 nM. The “Inhibition (%) of mouse ear edema” value in experiment [1] is 27.66%. The “Inhibition (%) of β-glucuronidase release” value in experiment [4] (Dose 1 × 10^−5 mol · L^−1, Irritant 1 × 10^−6 mol · L^−1) turned out to be 104.03%. The “Inhibition (%) of increase of cutaneous vascular permeability” value in [5] is listed as 55.78%. The “Inhibition (%) of mouse paw swelling” value in [6] is reported as 21.46%.
For the molecule `CN(C)C(=O)n1cc(C(=O)c2ccn3c2CS[C@@H]3c2cccnc2)c2ccc(-c3ccc(F)cc3)cc21` [Compound A-85783], the rat ear edema entry with rat ear edema is “significantly inhibit”.
`Cc1nnc2n1-c1sc3c(c1C(c1ccccc1Cl)=NC2)CC(C(=O)N1CCOCC1)C3` (stereo not drawn) [WEB2170]: the “increase of TNF-α level in synovial fluid” value in [7] is listed as “inhibit”. Also, in experiment [8], the “increase of new vessels” value is reported as “inhibit”.

The values are drawn from patent US8524744B2, “Arylamine ketones, their preparation methods, the pharmaceutical composition containing them and their use” (Institute of Mataria Medica, Chinese Academy of Medical …, priority 2004, dated 2013).
